Values quoted from earlier work in patent publication US20100151459A1, “MARKER FOR DETECTING THE PROPOSED EFFICACY OF TREATMENT” (priority 2007, published 2010).

How the values were obtained:
[1] = tested on: reserpinized (hypodopaminergic) rats
[2] = tested on: acutely exacerbated schizophrenic inpatients; conditions: 18 mg/day, 3-week treatment

SMILES | locomotor activity [1] | percentage improvement in other subgrouped symptoms (negative, anxiety-depression, excitement and cognitive symptoms) ([2]; between the two genotype groups) | percentage improvement in total BPRS and positive symptoms ([2]; one or two A1 alleles (n=14) vs no A1 allele (n=11))
O=C1CCc2ccc(OCCCCN3CCN(c4cccc(Cl)c4Cl)CC3)cc2N1 [aripiprazole] | does not increase locomotor activity |  | 
CNc1cc(OC)c(C(=O)NC2CCN(Cc3ccccc3)C2C)cc1Cl (stereo not drawn) [nemonapride] |  | similar | significantly higher percentage improvement
